Drawing on US12110288B2, “MASP-2 inhibitors and methods of use” (Omeros Corporation, priority 2019, dated 2024), this text covers Ki for 30 molecules.

Molecules are shown by their SMILES. pKi: −log10 of the molar value. Structures can show the parent of a compound that is named as a salt.

The pKi is −log10 of the Ki, conventionally taken in molar units. A low value points to a large Ki.

For this assay, the target named is T1, MASP-2 (CCP1-CCP2-SP) (Homo sapiens, UniProt O00187).
T1 construct: 15 μL of Enzyme MASP-2 (CCP1-CCP2-SP) in Assay Buffer
T1 sequence (O00187 445-686 limits assumed): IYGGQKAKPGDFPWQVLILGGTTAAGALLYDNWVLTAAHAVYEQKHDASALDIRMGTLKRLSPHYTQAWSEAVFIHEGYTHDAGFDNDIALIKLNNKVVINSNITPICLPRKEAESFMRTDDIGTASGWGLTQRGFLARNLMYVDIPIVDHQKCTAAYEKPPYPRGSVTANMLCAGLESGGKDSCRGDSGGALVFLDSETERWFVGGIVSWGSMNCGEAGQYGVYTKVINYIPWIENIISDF
T1 sequence (O00187 298-444 partner limits assumed): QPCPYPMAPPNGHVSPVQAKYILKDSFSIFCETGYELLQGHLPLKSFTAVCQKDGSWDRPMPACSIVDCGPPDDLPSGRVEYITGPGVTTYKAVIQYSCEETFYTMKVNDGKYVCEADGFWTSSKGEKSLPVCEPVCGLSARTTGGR
Nature of the assay: Enzymatic Assay for MASP-2. As to conditions: fluorogenic substrate based on C2 cleavage site, room temperature, 20 mM HEPES pH 7.4. The format is biochemical. As for the experimental part: Enzymatic Assay for MASP-2
The MASP-2 assay utilizes a fluorogenic substrate, based on the cleavage site for its natural substrate C2. The assay is run at room temperature in an assay buffer containing 20 mM HEPES, pH 7.4, 140 mM NaCl and 0.1% Tween 20. Assay parameters are adjusted such that the assay is linear with respect to time, enzyme, and substrate concentrations. Under these optimized assays conditions, IC50 values are equivalent to Ki values, except in a few cases of “tight binding” inhibitors. Cases of “tight binding” or possible “slow binding” inhibitors are handled by the methods described in Copeland R. A. (2013) Evaluation of Enzyme Inhibitors in Drug Discovery. 2nd Ed., John Wiley and Sons, Inc., Chapters 5-7.
The MASP-2 assay protocol is carried out as follows. Test compounds are serially diluted in DMSO and then 100 nL of each dilution is transferred to the assay plate(s). 10 μL of Assay Buffer is added, followed by 15 μL of Enzyme MASP-2 (CCP1-CCP2-SP) in Assay Buffer. 15 μL of Substrate in Assay Buffer is then added and mixed to start the reactions. After 20 min at room temperature, 15 μL of a stop solution (0.1 M acetic acid) is added, mixed and the plates are read on a SpectraMax i3x Microplate Reader and exported as Excel files. Each assay plate included a “no inhibitor” (DMSO Only) control, a “no enzyme” control and a reference inhibitor control. % Activity values=100*(average test comp. fluorescence−average “no enzyme” fluorescence)/(average “DMSO only” fluorescence−average “no enzyme” fluorescence). IC50 and Ki values are very reproducible, falling well within ±2-fold.
Consider `Cc1nc(N)ccc1CNC(=O)Cn1c(C)ncc(NS(=O)(=O)Cc2ccccc2)c1=O` [Compound 1, N-((6-Amino-2-Methylpyridin-3-yl)Methyl)-2-(2-Methyl-6-Oxo-5-((Phenylmethyl)Sulfonamido)Pyrimidin-1(6H)-yl)Acetamide, Trifluoro Acetate], for which the pKi was below 5.00.

`Cc1nc(N)ccc1CNC(=O)Cn1c(C)ncc(NCCc2ccccc2)c1=O` [Compound 2, N-((6-Amino-2-Methylpyridin-3-yl)Methyl)-2-(2-Methyl-6-Oxo-5-(Phenethylamino)Pyrimidin-1(6H)-yl)Acetamide, Trifluoroacetate]: the pKi was above 6.30.

`Cc1ncc(NCCc2ccccc2)c(=O)n1CC(=O)NCc1ccc2nc(N)[nH]c2c1` [Compound 3, N-((2-Amino-1H-benzo[d]imidazol-6-yl)methyl)-2-(2-methyl-6-oxo-5-(phenethylamino)pyrimidin-1(6H)-yl)acetamide trifluoroacetate]: the pKi was above 6.30.

`Nc1nc2ccc(CNC(=O)Cn3c(-c4ccccc4)ncc(NCCc4ccccc4)c3=O)cc2[nH]1` [Compound 4, N-((2-Amino-1H-Benzo[d]Imidazol-6-yl)Methyl)-2-(6-Oxo-5-(Phenethylamino)-2-Phenylpyrimidin-1(6H)-yl)Acetamide, Trifluoroacetate]: the pKi is above 6.30. With `CSc1ncc(NCCc2ccccc2)c(=O)n1CC(=O)NCc1ccc2nc(N)[nH]c2c1` [Compound 5, N-((2-Amino-1H-Benzo[d]Imidazol-6-yl)Methyl)-2-(2-(Methylthio)-6-Oxo-5-(Phenethylamino)Pyrimidin-1(6H)-yl)Acetamide], the pKi was above 6.30. Turning to `Cc1nc(N)ccc1CNC(=O)Cn1c(-c2ccccc2)ncc(NCCc2ccccc2)c1=O` [Compound 6, N-((6-Amino-2-Methylpyridin-3-yl)Methyl)-2-(6-Oxo-5-(Phenethylamino)-2-Phenylpyrimidin-1(6H)-yl)Acetamide], the pKi was above 6.30. `Nc1nc2ccc(CNC(=O)Cn3c(Br)cnc(NCCc4ccccc4)c3=O)cc2[nH]1` [Compound 8, N-((2-Amino-1H-Benzo[d]Imidazol-6-yl)Methyl)-2-(6-Bromo-2-Oxo-3-(Phenethylamino)Pyrazin-1(2H)-yl)Acetamide] showed a pKi above 6.30.

In turn, `Nc1nc2cc(CNC(=O)Cn3c(-c4ccccc4)cnc(NCCc4ccccc4)c3=O)ccc2[nH]1` [Compound 9, N-((2-Amino-1H-Benzo[d]Imidazol-5-yl)Methyl)-2-(2-Oxo-3-(Phenethylamino)-6-Phenylpyrazin-1(2H)-yl)Acetamide] gave a pKi above 6.30. Consider `N#Cc1cccc(-c2cnc(NCCc3ccccc3)c(=O)n2CC(=O)NCc2ccc3nc(N)[nH]c3c2)c1` [Compound 14, N-((2-Amino-1H-benzo[d]imidazol-6-yl)methyl)-2-(6-(3-cyanopheny1)-2-oxo-3-(phenethylamino)pyrazin-1(2H)-yl)acetamide], for which the pKi was above 6.30.

`NC(=O)c1cccc(-c2cnc(NCCc3ccccc3)c(=O)n2CC(=O)NCc2ccc3nc(N)[nH]c3c2)c1` [Compound 15] showed a pKi above 6.30. In turn, `Nc1nc2ccc(CNC(=O)Cn3c(-c4cccc(C(=O)O)c4)cnc(NCCc4ccccc4)c3=O)cc2[nH]1` [Compound 16] had a pKi above 6.30. `Cc1nc(N)ccc1CNC(=O)Cn1c(-c2ccc(Cl)cc2)cnc(NCCc2ccccc2)c1=O` [Compound 17, N-((6-Amino-2-Methylpyridin-3-yl)Methyl)-2-(6-(4-Chlorophenyl)-2-Oxo-3-(Phenethylamino)Pyrazin-1(2H)-yl) Acetamide, Trifluoroacetate]: the pKi is above 6.30.

Molecule `Cc1nc(N)ccc1CNC(=O)Cn1c(-c2cccnc2)cnc(NCCc2ccccc2)c1=O` [Compound 18, N-((6-amino-2-methylpyridin-3-yl)methyl)-2-(2-oxo-3-(phenethylamino)-6-(pyridin-3-yl)pyrazin-1(2H)-yl)acetamide trifluoroacetate] showed a pKi above 6.30.

The molecule `Cc1nc(N)ccc1CNC(=O)Cn1c(Cc2ccccc2)cnc(NCCc2ccccc2)c1=O` [Compound 19, N-((6-amino-2-methylpyridin-3-yl)methyl)-2-(6-benzyl-2-oxo-3-(phenethylamino)pyrazin-1(2H)-yl)acetamide trifluoroacetate] gave a pKi above 6.30.

On to `O=C(Cn1c(-c2ccccc2)cnc(NCCc2ccccc2)c1=O)NCc1cc2cnccc2[nH]1` [Compound 20, N-((1H-Pyrrolo[3,2-c]pyridin-2-yl)methyl)-2-(2-oxo-3-(phenethylamino)-6-phenylpyrazin-1(2H)-yl)acetamide trifluoroacetate], for which the pKi is above 6.30. Turning to `O=C(Cn1c(-c2ccc(C(F)(F)F)cc2)cnc(NCCc2ccccc2)c1=O)NCc1cc2cnccc2[nH]1` [Compound 21, N-((1H-Pyrrolo[3,2-c]Pyridin-2-yl)Methyl)-2-(2-Oxo-3-(Phenethylamino)-6-(4-(Trifluoromethyl)Phenyl)Pyrazin-1(2H)-yl)Acetamide, Trifluoroacetate], the pKi was above 6.30. Consider `Cc1nc(N)ccc1CNC(=O)Cn1c(-c2ccc[nH]2)cnc(NCCc2ccccc2)c1=O` [Compound 22, N-((6-Amino-2-methylpyridin-3-yl)methyl)-2-(2-oxo-3-(phenethylamino)-6-(1H-pyrrol-2-yl)pyrazin-1(2H)-yl)acetamide], for which the pKi was above 6.30. The figure for `Cc1nc(N)ccc1CNC(=O)Cn1c(-c2cncnc2)cnc(NCCc2ccccc2)c1=O` [Compound 23, N-((6-Amino-2-methylpyridin-3-yl)methyl)-2-(2-oxo-3-(phenethylamino)-6-(pyrimidin-5-yl)pyrazin-1(2H)-yl)acetamide] is above 6.30.

For the molecule `Cc1nc(N)ccc1CNC(=O)Cn1c(-c2cccc3cnccc23)cnc(NCCc2ccccc2)c1=O` [Compound 24, N-((6-Amino-2-methylpyridin-3-yl)methyl)-2-(6-(isoquinolin-5-yl)-2-oxo-3-(phenethylamino)pyrazin-1(2H)-yl)acetamide], the pKi is above 6.30. As for `Cc1nc(N)ccc1CNC(=O)Cn1c(-c2cnn(C)c2)cnc(NCCc2ccccc2)c1=O` [Compound 25, N-((6-Amino-2-methylpyridin-3-yl)methyl)-2-(6-(1-methyl-1H-pyrazol-4-yl)-2-oxo-3-(phenethylamino)pyrazin-1(2H)-yl)acetamide], the pKi was above 6.30. Regarding `Cc1nc(N)ccc1CNC(=O)Cn1c(C#Cc2ccccc2)cnc(NCCc2ccccc2)c1=O` [Compound 26, N-((6-Amino-2-Methylpyridin-3-yl)Methyl)-2-(2-Oxo-3-(Phenethylamino)-6-(Phenylethynyl)Pyrazin-1(2H)-yl)Acetamide], the negative-log Ki (pKi) was 5.60 to 6.30. For the molecule `Cc1nc(N)ccc1CNC(=O)Cn1c(-c2ccc(C#N)cc2)cnc(NCCc2ccccc2)c1=O` [Compound 27, N-((6-Amino-2-Methylpyridin-3-yl)Methyl)-2-(6-(4-Cyanophenyl)-2-Oxo-3-(Phenethyl Amino)Pyrazin-1(2H)-yl)Acetamide], the pKi was above 6.30. As for `COc1ccccc1-c1cnc(NCCc2ccccc2)c(=O)n1CC(=O)NCc1ccc(N)nc1C` [Compound 28, N-((6-Amino-2-methylpyridin-3-yl)methyl)-2-(6-(2-methoxyphenyl)-2-oxo-3-(phenethylamino)pyrazin-1(2H)-yl)acetamide hydrochloride], the pKi is above 6.30.

Consider `Cc1nc(N)ccc1CNC(=O)Cn1c(-c2ccccc2Cl)cnc(NCCc2ccccc2)c1=O` [Compound 29], for which the pKi is above 6.30. `Cc1nc(N)ccc1CNC(=O)Cn1c(-c2cccc(C(N)=O)c2)cnc(NCCc2ccccc2)c1=O` [Compound 30, 3-(1-(2-(((6-Amino-2-methylpyridin-3-yl)methyl)amino)-2-oxoethyl)-6-oxo-5-(phenethylamino)-1,6-dihydropyrazin-2-yl)benzamide hydrochloride] gave a pKi above 6.30. The molecule `Cc1nc(N)ccc1CNC(=O)Cn1c(-c2ccc(N)cc2)cnc(NCCc2ccccc2)c1=O` [Compound 31, N-((6-Amino-2-Methylpyridin-3-yl)Methyl)-2-(6-(4-Aminophenyl)-2-Oxo-3-(Phenyethylamino)Pyrazin-1-(2H)-yl)Acetamide] gave a pKi above 6.30. For `Cc1nc(N)ccc1CNC(=O)Cn1c(-c2cccc(CO)c2)cnc(NCCc2ccccc2)c1=O` [Compound 32, N-((6-Amino-2-Methylpyridin-3-yl)Methyl)-2-(6-(3-(Hydroxymethyl)Phenyl)-2-Oxo-3-(Phenethyl Amino)Pyrazin-1(2H)-yl)Acetamide] the value was above 6.30; for `Cc1nc(N)ccc1CNC(=O)Cn1c(-c2ccc(CO)cc2)cnc(NCCc2ccccc2)c1=O` [Compound 33], above 6.30; for `Cc1nc(N)ccc1CNC(=O)Cn1c(=O)c(NCCc2ccccc2)cn(C)c1=O` [Compound 34, N-((6-Amino-2-Methylpyridin-3-yl)Methyl)-2-(3-Methyl-2,6-Dioxo-5-(Phenethylamino)-3,6-Dihydropyrimidin-1(2H)-yl)Acetamide], above 6.30. For `Cc1cc(Cl)cc(CNC(=O)Cn2c(=O)c(NCCc3ccccc3)cn(C)c2=O)c1O` [Compound 35, trifluoroacetate] the value was 5.00 to 5.60.
